IC50 data for 19 molecules are collected here from patent US20220073496A1, “NOVEL QUINOLINE DERIVATIVE INHIBITOR” (Nanjing Transthera Biosciences Co., Ltd., priority 2018, published 2022).

One test has as its target T1, H1299 cell pMer (Homo sapiens, UniProt Q12866).
T1 construct: The H1299 cells were inoculated in a 6-well plate; endogenous in cells; host or cells: H1299
T1 sequence (Q12866 21-999): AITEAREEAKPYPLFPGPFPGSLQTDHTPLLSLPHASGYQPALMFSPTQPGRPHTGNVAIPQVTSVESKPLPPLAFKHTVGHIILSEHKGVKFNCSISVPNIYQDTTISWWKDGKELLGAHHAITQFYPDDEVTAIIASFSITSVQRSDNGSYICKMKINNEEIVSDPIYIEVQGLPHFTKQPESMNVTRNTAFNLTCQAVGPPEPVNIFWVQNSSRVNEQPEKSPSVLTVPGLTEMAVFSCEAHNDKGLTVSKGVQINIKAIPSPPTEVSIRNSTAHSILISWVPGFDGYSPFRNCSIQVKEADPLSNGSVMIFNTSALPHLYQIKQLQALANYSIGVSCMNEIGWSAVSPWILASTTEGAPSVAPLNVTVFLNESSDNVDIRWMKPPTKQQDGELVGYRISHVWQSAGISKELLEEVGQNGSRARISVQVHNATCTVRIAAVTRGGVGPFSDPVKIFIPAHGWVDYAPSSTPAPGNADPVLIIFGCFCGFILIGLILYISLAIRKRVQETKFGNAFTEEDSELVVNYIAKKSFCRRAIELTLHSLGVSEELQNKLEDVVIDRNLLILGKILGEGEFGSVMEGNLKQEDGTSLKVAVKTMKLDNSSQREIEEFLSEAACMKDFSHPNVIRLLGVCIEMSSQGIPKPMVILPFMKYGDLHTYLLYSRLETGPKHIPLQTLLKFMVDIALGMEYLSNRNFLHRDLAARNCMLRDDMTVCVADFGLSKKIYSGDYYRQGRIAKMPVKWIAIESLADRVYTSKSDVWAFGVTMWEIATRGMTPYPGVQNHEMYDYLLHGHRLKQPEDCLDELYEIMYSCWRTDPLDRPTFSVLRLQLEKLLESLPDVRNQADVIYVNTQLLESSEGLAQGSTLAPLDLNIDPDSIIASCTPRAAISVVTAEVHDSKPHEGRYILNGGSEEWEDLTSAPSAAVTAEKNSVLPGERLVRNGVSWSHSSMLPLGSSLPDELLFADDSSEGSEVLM
Nature of the test: Inhibitory activity on the cell pMer (Western Blot). The format is cell-based. Particulars: H1299 cells, compound 0.35, 1.1, 3.3, 10 nM, Human MerMab 200 ng/mL. Here is the method: Assay 6: Test for Inhibitory Activities of the Compounds of the Present Invention on the Cell pMer
H1299 is a non-small cell lung cancer cell.
Test substances: the compounds of the present invention, wherein the structures thereof were as described above.
Test equipment: protein electrophoresis apparatus (manufactured by Bio Rad), transfer unit (manufactured by Bio Rad), exposure unit (manufactured by Tanon), CO2 cell incubator (manufactured by Thermo).
The H1299 cells were inoculated in a 6-well plate (containing 10% FBS 1640 medium, 5×10^5 cells per well), and adherent cells were cultivated at 37° C. in a 5% CO2 condition for 18 hours. The cells were starved overnight. Different concentrations of compounds were added. The final compound concentrations were 0.35, 1.1, 3.3 and 10 nM, and the final DMSO content was 1‰. The negative control wells contained the medium containing 1‰ DMSO. After incubating at 37° C. in a 5% CO2 condition for 60 minutes, Human MerMab (R&D, final concentration 200 ng/mL) was added to each well. After further incubating for 60 minutes, the cell total protein was extracted for Western Blot and the IC50 values were calculated using GraphPad 5.0 software. The inhibitory activity of the compound on the cell pMer was examined.
Background: A western blot detects proteins with antibodies after separation by electrophoresis.

For a further test, the target named is T2, CSF1R (h) (Homo sapiens, UniProt P07333).
T2 construct: purchased
T2 sequence (P07333 20-972): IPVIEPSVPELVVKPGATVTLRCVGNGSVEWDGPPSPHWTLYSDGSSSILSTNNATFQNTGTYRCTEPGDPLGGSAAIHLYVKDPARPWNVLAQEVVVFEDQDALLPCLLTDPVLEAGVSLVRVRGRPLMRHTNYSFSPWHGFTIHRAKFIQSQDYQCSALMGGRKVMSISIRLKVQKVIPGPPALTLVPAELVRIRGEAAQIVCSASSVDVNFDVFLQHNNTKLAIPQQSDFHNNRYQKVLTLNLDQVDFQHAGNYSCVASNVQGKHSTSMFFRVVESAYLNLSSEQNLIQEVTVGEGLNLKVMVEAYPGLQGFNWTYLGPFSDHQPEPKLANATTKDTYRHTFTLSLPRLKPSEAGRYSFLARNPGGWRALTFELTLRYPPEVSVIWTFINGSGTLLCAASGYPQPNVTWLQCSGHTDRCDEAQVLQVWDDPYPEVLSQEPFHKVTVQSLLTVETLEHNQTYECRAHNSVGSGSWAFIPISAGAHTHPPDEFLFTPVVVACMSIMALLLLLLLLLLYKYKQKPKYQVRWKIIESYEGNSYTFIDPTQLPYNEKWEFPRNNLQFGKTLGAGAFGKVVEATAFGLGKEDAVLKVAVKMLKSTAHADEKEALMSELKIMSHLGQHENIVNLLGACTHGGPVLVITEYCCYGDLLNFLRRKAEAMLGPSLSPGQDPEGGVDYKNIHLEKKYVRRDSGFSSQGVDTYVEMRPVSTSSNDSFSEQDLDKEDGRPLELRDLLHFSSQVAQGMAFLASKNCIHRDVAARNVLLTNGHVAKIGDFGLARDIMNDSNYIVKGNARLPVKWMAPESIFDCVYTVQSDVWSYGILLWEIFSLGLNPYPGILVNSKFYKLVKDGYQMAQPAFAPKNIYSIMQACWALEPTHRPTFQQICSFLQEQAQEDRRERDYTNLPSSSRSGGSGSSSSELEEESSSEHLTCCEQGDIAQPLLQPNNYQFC
The test can be described thus: Enzymatic activity test, CSF1R (h). The format is biochemical. Particulars: 10 μM [γ-33P]-ATP, 40 minutes, room temperature. As to the method:
Assay 3: Enzymatic Activity Test of the Compounds of the Present Invention
Test substances: the compounds of the present invention, wherein the structures and preparations thereof were as described above.
(1) Preparation of the Compound Stock Solution
The compound was dissolved in 100% DMSO to prepare a stock solution with a maximum concentration of 500 μM.
(2) Preparation of the Compound Working Solution
The compound stock solution was diluted to final concentrations of 500, 150, 50, 15, 5, 1.5, 0.5, 0.15 and 0.05 μM to become the compound working solutions (50×).
(3) Preparation of Different Enzyme Reaction Solutions
The enzymatic reaction was activated by using 10 mM magnesium acetate and 10 μM [γ-^33P]-ATP to form an Mg/ATP mixed solution.
In a 384-well plate, the compound working solution was added to final concentrations of 10000, 3000, 1000, 300, 100, 30, 10, 3, and 1 nM. Then different enzyme reaction solutions prepared according to the above conditions were added. The incubation was carried out for 40 minutes at room temperature. The test was terminated by the addition of a 0.5% phosphoric acid solution. 10 μL of the reaction solution was taken and dropped to the P30 filter paper. […] The grayscale analysis of the results was performed using Image J software and the IC50 values were calculated using GraphPad 5.0 software.

The IC50 is the midpoint of a concentration-inhibition curve. Low values mean higher potency, high ones lower potency.

Regarding `COc1cc2nccc(Oc3ccc(NC(=O)c4nn(C5CC5)cc(-c5ccc(C)cc5)c4=O)nc3)c2cc1OC` [Compound 46, 1-cyclopropyl-N-(5-((6,7-dimethoxyquinolin-4-yl)oxy)pyridin-2-yl)-4-oxo-5-p-tolyl-1,4-dihydropyridazine-3-carboxamide], at H1299 cell pMer, the half-maximal inhibitory concentration (IC50) was < 0.37 nM.

As for `COc1cc2nccc(Oc3cnc(NC(=O)c4cn(C5CC5)nc(-c5ccc(F)cc5)c4=O)nc3)c2cc1OC` [Compound 45, 2-cyclopropyl-N-(5-((6,7-dimethoxyquinolin-4-yl)oxy)pyrimidine-2-yl)-6-(4-fluorophenyl)-5-oxo-2,5-dihydropyridazine-4-carboxamide], at H1299 cell pMer, the half-inhibitory concentration (IC50) was < 1.1 nM.

Take `COc1cc2nccc(Oc3cnc(NC(=O)c4cn(C(C)C)nc(-c5ccc(F)cc5)c4=O)nc3)c2cc1OC` [Compound 39, N-(5-((6,7-dimethoxyquinolin-4-yl)oxy)pyrimidine-2-yl)-6-(4-fluorophenyl)-2-isopropyl-5-oxo-2,5-dihydropyridazine-4-carboxamide]: the IC50 against H1299 cell pMer is 1.1 nM; against CSF1R (h), 34 nM.

Consider `COc1cc2nccc(Oc3ccc(NC(=O)c4cn(C5CC5)cc(-c5ccc(F)cc5)c4=O)nc3)c2cc1OC` [Compound 30, N-(5-((6,7-dimethoxyquinolin-4-yl)oxy)pyridin-2-yl)-1-cyclopropyl-4-oxo-5-para-fluorophenyl-1,4-hydropyridin-3-carboxamide], for which the 50% inhibitory concentration (IC50) on H1299 cell pMer was 1.1 to 3.3 nM; against CSF1R (h) it was 61 nM.

Take `COc1cc2nccc(Oc3ccc(NC(=O)c4nn(C5CC5)cc(-c5ccc(F)cc5)c4=O)cn3)c2cc1OC` [Compound 36]: the half-inhibitory concentration (IC50) against H1299 cell pMer is < 0.35 nM; against CSF1R (h) it was 68 nM.

For `COc1cc2nccc(Oc3ncc(NC(=O)c4nn(C5CC5)cc(-c5ccc(F)cc5)c4=O)cn3)c2cc1OC` [Compound 37, 1-cyclopropyl-N-(2-((6,7-dimethoxyquinolin-4-yl)oxy)pyrimidine-5-yl)-5-para-fluorophenyl-4-oxo-1,4-dihydropyridazine-3-carboxamide], the half-maximal inhibitory concentration (IC50) against H1299 cell pMer lay within 1.1 to 3.3 nM.

With `COc1cc2nccc(Oc3ccc(NC(=O)c4cn(C(C)C)cc(-c5ccc(C)cc5)c4=O)nc3)c2cc1OC` [Compound 1, N-(5-((6,7-dimethoxyquinolin-4-yl)oxy)pyridin-2-yl)-1-isopropyl-4-oxo-5-p-tolyl-1,4-dihydropyridin-3-carboxamide], the IC50 against H1299 cell pMer is 1.1 to 3.3 nM; against CSF1R (h), 200 nM.

For `COc1cc2nccc(Oc3ccc(NC(=O)c4nn(C5CC5)cc(-c5ccc(F)cc5)c4=O)nc3)c2cc1OC` [Compound 31], the IC50 on H1299 cell pMer is < 0.35 nM; on CSF1R (h) it was 20 nM.

`COc1cc2nccc(Oc3cnc(NC(=O)c4nn(C(C)C)cc(-c5ccc(F)cc5)c4=O)nc3)c2cc1OC` [Compound 16, N-(5-((6,7-dimethoxyquinolin-4-yl)oxy)pyrimidine-2-yl)-5-(4-fluorophenyl)-1-isopropyl-4-oxo-1,4-dihydropyridazine-3-carboxamide]: the IC50 at H1299 cell pMer was < 1.1 nM; against CSF1R (h), 61 nM.

As to `COc1cc2nccc(Oc3cnc(NC(=O)c4nn(C5CC5)cc(-c5ccc(F)cc5)c4=O)nc3)c2cc1OC` [Compound 33], the figures for the IC50 against H1299 cell pMer and on CSF1R (h) were < 1.1 nM and 37 nM, respectively.

For `COc1cc2nccc(Oc3ccc(NC(=O)c4cn(C5CC5)nc(-c5ccc(F)cc5)c4=O)nc3)c2cc1OC` [Compound 42, 2-cyclopropyl-N-(5--((6,7-dimethoxyquinolin-4-yl)oxy)pyridin-2-yl)-6-(4-fluorophenyl)-5-oxo-2,5-dihydropyridazine-4-carboxamide], on H1299 cell pMer, the IC50 is < 1.1 nM.

Consider `COc1cc2nccc(Oc3ccc(NC(=O)c4cn(C(C)C)nc(-c5ccc(F)cc5)c4=O)nc3)c2cc1OC` [Compound 41, N-(5-((6,7-dimethoxyquinolin-4-yl)oxy)pyridin-2-yl)-6-(4-fluorophenyl)-2-isopropyl-5-oxo-2,5-dihydropyridazine-4-carboxamide], for which the half-inhibitory concentration (IC50) against H1299 cell pMer was < 3.3 nM.

Molecule `COc1cc2nccc(Oc3ccc(NC(=O)c4cn(C(C)C)nc(-c5ccc(F)cc5)c4=O)cn3)c2cc1OC` [Compound 38, N-(6-((6,7-dimethoxyquinolin-4-yl)oxy)pyridin-3-yl)-6-para-fluorophenyl-2-isopropyl-5-oxo-2,5-dihydropyridazine-4-carboxamide] had an IC50 against CSF1R (h) of 57 nM.

Consider `COc1cc2nccc(Oc3ccc(NC(=O)c4nn(C(C)C)cc(-c5ccc(F)cc5)c4=O)nc3)c2cc1OC` [Compound 15, N-(5-((6,7-dimethoxyquinolin-4-yl)oxy)pyridin-2-yl)-5-(4-fluorophenyl)-1-isopropyl-4-oxo-1,4-dihydropyridazine-3-carboxamide], for which the figures for the half-inhibitory concentration (IC50) against H1299 cell pMer and against CSF1R (h) were < 0.35 nM and 38 nM, respectively.

Turning to `COc1cc2nccc(Oc3ncc(NC(=O)c4nn(C(C)C)cc(-c5ccc(F)cc5)c4=O)cn3)c2cc1OC` [Compound 34, N-(2-((6,7-dimethoxyquinolin-4-yl)oxy)pyrimidine-5-yl)-5-para-fluorophenyl-1-isopropyl-4-oxo-1,4-dihydropyridazine-3-carboxamide], the values for the half-inhibitory concentration (IC50) on H1299 cell pMer and against CSF1R (h) were < 1.1 nM and 161 nM, respectively.

On to `COc1cc2nccc(Oc3ccc(NC(=O)c4cn(C5CC5)nc(-c5ccc(F)cc5)c4=O)cn3)c2cc1OC` [Compound 43, 2-cyclopropyl-N-(6-((6,7-dimethoxyquinolin-4-yl)oxy)pyridin-3-yl)-6-para-fluorophenyl-5-oxo-2,5-dihydropyridazine-4-carboxamide], for which the half-inhibitory concentration (IC50) on H1299 cell pMer was < 1.1 nM.

For `COc1cc2nccc(Oc3cnc(NC(=O)c4cn(C(C)C)cc(-c5ccc(F)cc5)c4=O)nc3)c2cc1OC` [Compound 20, N-(5-((6,7-dimethoxyquinolin-4-y)oxy)pyrimidine-2-yl)-5-(4-fluorophenyl)-1-isopropyl-4-oxo-1,4-dihydropyridin-3-carboxamide], the IC50 was 1.1 nM on H1299 cell pMer and 78 nM against CSF1R (h).

On to `COc1cc2nccc(Oc3ccc(NC(=O)c4nn(C(C)C)cc(-c5ccc(F)cc5)c4=O)cn3)c2cc1OC` [Compound 29, N-(6-((6,7-dimethoxyquinolin-4-yl)oxy)pyridin-3-yl)-1-isopropyl-4-oxo-5-para-fluorophenyl-1,4-dihydropyridazine-3-carboxamide], for which the IC50 on H1299 cell pMer was < 1.1 nM; against CSF1R (h), 51 nM.

In turn, `COc1cc2nccc(Oc3ncc(NC(=O)c4cn(C(C)C)nc(-c5ccc(F)cc5)c4=O)cn3)c2cc1OC` [Compound 40, N-(2-((6,7-dimethoxyquinolin-4-yl)oxy)pyrimidine-5-yl)-6-(4-fluorophenyl)-2-isopropyl-5-oxo-2,5-dihydropyridazine-4-carboxamide] showed an IC50 against CSF1R (h) of 259 nM.
